Source: PMC11823609, “Advancements in the fight against globally distributed OXA-48 carbapenemase: evaluating the new generation of carbapenemase inhibitors” (Antimicrobial Agents and Chemotherapy, 2025)
Values after ≈ are worked out from the molar mass of the structure shown. Like-named read-outs stand apart in the source and are kept apart here.

How the values were obtained:
Experiment in all cases: microbe, parasite or virus in culture
[1] = tested on: E. coli HB4 ΔompC/F (CTX-M-14); type: cell-based, Escherichia coli; details: Escherichia coli
Description: (§1) The E. coli HB4 strain was used to gain a more complete perspective, by evaluating the involvement in resistance of a low permeability background with the carbapenemase OXA-48, as well as coproduction of an ESBL and the carbapenemase; thus, the ESBL CTX-M-14 and OXA-48 were cloned together and separately into E. coli HB4. The characteristics of these strains and transformants are summarized in Table S1, and the cloning procedures are outlined in the supplemental methods.
(§2) The MICs of each of the individual compounds (antibiotics or inhibitors) were also determined. The MICs were determined for the E. coli isogenic expressing OXA-48 (and both OXA-48 and CTX-M-14) to assess their activity against the carbapenemase; MICs were also determined for the 18 Enterobacterales clinical isolates in order to evaluate the new inhibitors against also their resistance concomitant mechanisms. The MICs were determined in triplicate experiments, and the EUCAST 13.0 clinical breakpoints were followed (http://www.eucast.org/clinical_breakpoints).
(§3) For comparative evaluation of the activity of each inhibitor alone against the carbapenemase OXA-48, all inhibitors (at 4 mg/L) were tested in the presence of a carbapenem (ertapenem, adequate substrate) and a cephalosporin (ceftazidime, poor substrate) as reporter substrates. This prevented any possible masking effect produced by the different partner antibiotics. These assays were also performed with isogenic transformants and clinical isolates.

[2] = tested on: E. coli HB4 ΔompC/F (CTX-M-14 + OXA-48); type: cell-based, Escherichia coli; details: for MIC: Escherichia coli
Description: as §1, §2, §3

[3] = tested on: E. coli HB4 ΔompC/F (OXA-48); type: cell-based, Escherichia coli; details: Escherichia coli
Description: as §1, §2, §3

E. coli HB4 ΔompC/F = type: cell-based, Escherichia coli; details: Escherichia coli
Description: as §1, §2, §3

[4] = tested on: K. pneumoniae strain 71 (MLST 15, No ESBL); type: cell-based; details: Klebsiella pneumoniae; K. pneumoniae 71; β-lactamase inhibitor alone; read-out: MIC
Protocol: (§4) The efficacy of these new BLIs was also evaluated against 18 genetically diverse WGS-characterized collection of OXA-48-positive Enterobacterales recovered as part of the Carbapenem-resistant Enterobacterales Genome Database Project (https://genomes.cnag.cat/incredble) listed in Table S2 ([13]). Combinations of clinical isolates (five pairs of Klebsiella pneumoniae, two pairs of Enterobacter cloacae, and two pairs of E. coli) were chosen for analysis: (i) nine strains carrying ESBLs; and (ii) nine strains (genetically closer available strains) without ESBLs.
as §2, §3

[5] = tested on: E. coli strain 177 (MLST 131, ESBL); type: cell-based; details: Escherichia coli
Protocol: as §4, §2, §3

[6] = tested on: E. cloacae strain 231 (MLST 171, No ESBL); type: cell-based; details: Enterobacter cloacae
Protocol: as §4, §2, §3

[7] = tested on: E. coli strain 264 (MLST 131, No ESBL); type: cell-based; details: Escherichia coli; E. coli 264; β-lactamase inhibitor alone; read-out: MIC
Protocol: as §4, §2, §3

[8] = tested on: K. pneumoniae strain 413 (MLST 147, ESBL); type: cell-based; details: Klebsiella pneumoniae
Protocol: as §4, §2, §3

[9] = tested on: K. pneumoniae strain 238 (MLST 15, ESBL); type: cell-based; details: Klebsiella pneumoniae
Protocol: as §4, §2, §3

[10] = tested on: E. cloacae strain 272 (MLST 78, ESBL); type: cell-based; details: Enterobacter cloacae
Protocol: as §4, §2, §3

[11] = tested on: K. pneumoniae strain 125 (MLST 307, ESBL); type: cell-based; details: Klebsiella pneumoniae
Protocol: as §4, §2, §3

[12] = tested on: E. coli strain 224 (MLST 127, No ESBL); type: cell-based; details: Escherichia coli; E. coli 224; β-lactamase inhibitor alone; read-out: MIC
Protocol: as §4, §2, §3

[13] = tested on: K. pneumoniae strain 237 (MLST 147, No ESBL); type: cell-based; details: Klebsiella pneumoniae; K. pneumoniae 237; β-lactamase inhibitor alone; read-out: MIC
Protocol: as §4, §2, §3

[14] = tested on: K. pneumoniae strain 194 (MLST 392, No ESBL); type: cell-based; details: Klebsiella pneumoniae; K. pneumoniae 194; β-lactamase inhibitor alone; read-out: MIC
Protocol: as §4, §2, §3

[15] = tested on: K. pneumoniae strain 497 (MLST 11, No ESBL); type: cell-based; details: Klebsiella pneumoniae; K. pneumoniae 497; β-lactamase inhibitor alone; read-out: MIC
Protocol: as §4, §2, §3

[16] = tested on: K. pneumoniae strain 170 (MLST 307, No ESBL); type: cell-based; details: Klebsiella pneumoniae; K. pneumoniae 170; β-lactamase inhibitor alone; read-out: MIC
Protocol: as §4, §2, §3

[17] = tested on: E. cloacae strain 281 (MLST 78, No ESBL); type: cell-based; details: Enterobacter cloacae
Protocol: as §4, §2, §3

[18] = tested on: K. pneumoniae strain 19 (MLST 11, ESBL); type: cell-based; details: Klebsiella pneumoniae
Protocol: as §4, §2, §3

[19] = tested on: E. coli strain 103 (MLST 10, ESBL); type: cell-based; details: Escherichia coli
Protocol: as §4, §2, §3

[20] = tested on: E. cloacae strain 235 (MLST 171, ESBL); type: cell-based; details: Enterobacter cloacae
Protocol: as §4, §2, §3

[21] = tested on: K. pneumoniae strain 23 (MLST 392, ESBL); type: cell-based; details: Klebsiella pneumoniae
Protocol: as §4, §2, §3

[22] = E. cloacae 231, β-lactamase inhibitor alone, read-out: MIC
[23] = E. cloacae 281, β-lactamase inhibitor alone, read-out: MIC

Row | Structure (SMILES) | MIC [1] | MIC [2] | MIC [3] | MIC (E. coli HB4 ΔompC/F) | MIC [4] | MIC [5] | MIC [7] | MIC [8] | MIC [9] | MIC [10] | MIC [11] | MIC [12] | MIC [13] | MIC [14] | MIC [15] | MIC [16] | MIC [18] | MIC [19] | MIC [20] | MIC [21] | other results
1 | NCCONC(=O)[C@@H]1CC[C@@H]2CN1C(=O)N2OS(=O)(=O)O [Nacubactam, nacubactam] | 2 mg/L (≈ 6.17 µM) | 2 mg/L (≈ 6.17 µM) | 2 mg/L (≈ 6.17 µM) | 2 mg/L (≈ 6.17 µM) | 16 mg/L | 8 mg/L | 1 mg/L | ≥ 128 mg/L | 16 mg/L | 4 mg/L | ≥ 128 mg/L | 8 mg/L | 1 mg/L | 2 mg/L | ≥ 128 mg/L | 4 mg/L | ≥ 128 mg/L | 2 mg/L | 8 mg/L | 2 mg/L | MIC [6, 22]: 1 mg/L; MIC [17, 23]: 4 mg/L
2 | NCCN[C@H]1CC[C@H](CC(=O)N[C@H]2Cc3cccc(C(=O)O)c3OB2O)CC1 [Taniborbactam, taniborbactam] | ≥ 128 mg/L | ≥ 128 mg/L | ≥ 128 mg/L | ≥ 128 mg/L | ≥ 128 mg/L | ≥ 128 mg/L | ≥ 128 mg/L | ≥ 128 mg/L | ≥ 128 mg/L | ≥ 128 mg/L | ≥ 128 mg/L | ≥ 128 mg/L | ≥ 128 mg/L | ≥ 128 mg/L | ≥ 128 mg/L | ≥ 128 mg/L | ≥ 128 mg/L | ≥ 128 mg/L | ≥ 128 mg/L | ≥ 128 mg/L | decrease of ertapenem MIC with BLI ([2]; E. coli HB4 coproducing CTX-M-14 and OXA-48, BLI 4 mg/L): 8 fold; MIC [6]: ≥ 128 mg/L; MIC [17]: ≥ 128 mg/L
3 | O=C(O)C[C@@H]1CC[C@H](NC(=O)Cc2cccs2)B(O)O1 [Vaborbactam, vaborbactam] | ≥ 128 mg/L | ≥ 128 mg/L | ≥ 128 mg/L | ≥ 128 mg/L | ≥ 128 mg/L | ≥ 128 mg/L | ≥ 128 mg/L | ≥ 128 mg/L | ≥ 128 mg/L | ≥ 128 mg/L | ≥ 128 mg/L | ≥ 128 mg/L | ≥ 128 mg/L | ≥ 128 mg/L | ≥ 128 mg/L | ≥ 128 mg/L | ≥ 128 mg/L | ≥ 128 mg/L | ≥ 128 mg/L | ≥ 128 mg/L | MIC [6, 22]: ≥ 128 mg/L; MIC [17, 23]: ≥ 128 mg/L
